In ChEMBL document CHEMBL5236646, “Design, synthesis, and biological evaluation of BRD4 degraders” (Bioorg Med Chem, 2023) one finds IC50 and Activity data, which are given here for two compounds.

The test system of experiment [1] is MM1.S. Description: Antiproliferative activity against human MM1.S cells assessed as inhibition of cell growth incubated for 72 hrs MTS assay. Format: functional, cell-based. A general note: Tetrazolium dyes change colour on reduction, which living cells bring about.
Experiment [2] relates to MV4-11. Nature of the experiment: Antiproliferative activity against human […] cells assessed as inhibition of cell growth incubated for 72 hrs MTS assay. Format: functional, cell-based. The settings on record: MV4-11, 72 h.
For experiment [3], the target named is T1, Protein cereblon/Bromodomain-containing protein 4 (Homo sapiens) (UniProt O60885+Q96SW2). Nature of the experiment: Protac activity at CRBN/BRD4 in human MM1.S cells assessed as induction of BRD4 protein degradation by measuring residual activity at 0.06 uM incubated for 3 hrs by Western blot analysis relative to control. The format is cell-based.
Experiment [4] concerns the target T1, Protein cereblon/Bromodomain-containing protein 4 (Homo sapiens). Description: Protac activity at CRBN/BRD4 in human MM1.S cells assessed as induction of BRD4 protein degradation by measuring residual activity at 0.18 uM incubated for 3 hrs by Western blot analysis relative to control. The format is cell-based. In general terms: Immunoblotting shows a protein as a band on a membrane.

For experiment [5] the target is unchanged. Description: Protac activity at CRBN/BRD4 in human MM1.S cells assessed as induction of BRD4 protein degradation by measuring residual activity at 0.02 uM incubated for 3 hrs by Western blot analysis relative to control. Format: cell-based.
Experiment [6] shares this target. Nature of the experiment: Protac activity at CRBN/BRD4 in human MV4-11 cells assessed as induction of BRD4 protein degradation by measuring residual activity at 0.005 uM incubated for 3 hrs by Western blot analysis relative to control. The format is cell-based.
The target is the same in experiment [7]. Description: Protac activity at CRBN/BRD4 in human MV4-11 cells assessed as induction of BRD4 protein degradation by measuring residual activity at 0.015 uM incubated for 3 hrs by Western blot analysis relative to control. The format is cell-based.
The target is the same in experiment [8]. Description: Protac activity at CRBN/BRD4 in human MV4-11 cells assessed as induction of BRD4 protein degradation by measuring residual activity at 0.045 uM incubated for 3 hrs by Western blot analysis relative to control. Format: cell-based.
Experiment [9] has the same target. Nature of the experiment: Protac activity at CRBN/BRD4 in human MM1.S cells assessed as induction of BRD4 protein degradation by measuring residual activity at 0.2 uM incubated for 3 hrs by Western blot analysis relative to control. The format is cell-based.
For experiment [10] the target is unchanged. Description: Protac activity at CRBN/BRD4 in human MM1.S cells assessed as induction of BRD4 protein degradation by measuring residual activity at 0.6 uM incubated for 3 hrs by Western blot analysis relative to control. The format is cell-based.
For experiment [11] the target is unchanged. Description: Protac activity at CRBN/BRD4 in human MM1.S cells assessed as induction of BRD4 protein degradation by measuring residual activity at 1.8 uM incubated for 3 hrs by Western blot analysis relative to control. Format: cell-based.
Experiment [12] shares this target. Nature of the experiment: Protac activity at CRBN/BRD4 in human MV4-11 cells assessed as induction of BRD4 protein degradation by measuring residual activity at 0.04 uM incubated for 3 hrs by Western blot analysis relative to control. Format: cell-based.
Experiment [13] shares this target. Description: Protac activity at CRBN/BRD4 in human MV4-11 cells assessed as induction of BRD4 protein degradation by measuring residual activity at 0.12 uM incubated for 3 hrs by Western blot analysis relative to control. The format is cell-based.
Experiment [14] shares this target. Nature of the experiment: Protac activity at CRBN/BRD4 in human MV4-11 cells assessed as induction of BRD4 protein degradation by measuring residual activity at 0.36 uM incubated for 3 hrs by Western blot analysis relative to control. Format: cell-based.

T1 sequence (Q96SW2 whole entry, looked up, other chains not shown): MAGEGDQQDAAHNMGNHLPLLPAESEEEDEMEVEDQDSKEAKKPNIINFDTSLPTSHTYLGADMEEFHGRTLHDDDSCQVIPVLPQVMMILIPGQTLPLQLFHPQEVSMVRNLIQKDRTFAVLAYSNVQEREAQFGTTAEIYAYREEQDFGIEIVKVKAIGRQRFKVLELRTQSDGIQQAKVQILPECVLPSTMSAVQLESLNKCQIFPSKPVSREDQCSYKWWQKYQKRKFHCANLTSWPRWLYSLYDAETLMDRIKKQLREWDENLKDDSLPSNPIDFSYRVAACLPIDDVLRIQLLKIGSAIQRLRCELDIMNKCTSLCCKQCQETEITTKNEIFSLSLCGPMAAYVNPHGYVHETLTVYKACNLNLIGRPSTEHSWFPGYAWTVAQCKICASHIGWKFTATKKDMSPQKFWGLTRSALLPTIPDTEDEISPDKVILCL

As for `Cc1sc2c(c1C)C(c1ccc(Cl)cc1)=N[C@@H](CC(=O)NCCCCNC(=O)c1ccc(COc3cccc4c3CN(C3CCC(=O)NC3=O)C4=O)cc1)c1nnc(C)n1-2` (stereo partly specified), the results for the IC50 in experiment [1] and in experiment [2] were 139 nM and 10 nM, respectively. Besides, the Activity in experiment [3] was determined as 98%; in [4], 59%; in experiment [5], 93%; in [6] it was 126%; in experiment [7] it was 102%; in experiment [8], 95%.
On to `Cc1sc2c(c1C)C(c1ccc(Cl)cc1)=N[C@@H](CC(=O)NCCCCNC(=O)c1ccc(CNc3cccc4c3C(=O)N(C3CCC(=O)NC3=O)C4=O)cc1)c1nnc(C)n1-2` (stereo partly specified), for which the IC50 (commonly the concentration at which inhibition is half-maximal) in experiment [1] is 602 nM; in experiment [2] it was 128 nM. For the same compound, the Activity stood at 144% in [9]; 141% in experiment [10]; 139% in experiment [11]; 121% in experiment [12]; 99% in experiment [13]; 131% in experiment [14].
